Data published in patent US7985594B2, “Biradical polarizing agents for dynamic nuclear polarization” (Massachusetts Institute of Technology, priority 2006, dated 2011).

Columns and labels:
[1] = DNP enhanced 13C-CPMAS NMR experiments (1H polarization enhancement by microwave irradiation); details: 5 mM TOTAPOL, 2 M 13C-urea in d6-DMSO/D2O/H2O, 90 K, 5 T
Experimental: Solutions for the DNP/NMR experiments—2 M ^13C-urea or 0.15 M U—^13C—^15N-proline—were prepared in d6-DMSO/D2O/H2O (60:34:6 w/w) or d8-glycerol/D2O/H2O (60:32:8 w/w), and doped with 5 mM TOTAPOL (10 mM electron spins). The reduced ^1H concentration was required to optimize the signal enhancements. DNP experiments using TOTAPOL as a polarizing agent were performed on a custom designed DNP/NMR spectrometer and triple-resonance (e^−, ^1H and ^13C/^15N) cryogenic (90 K) MAS probe^31 operating at 5 T (140 GHz EPR and 211 MHz ^1H NMR). The enhanced ^1H polarization developed by the microwave irradiation was detected indirectly via observation of the cross-polarized (CP) ^13C signals. The 140 GHz microwaves were generated by a gyrotron, a vacuum electron device capable of producing high power (>10 W) millimeter waves^26. In certain embodiments, sapphire, rather than zirconia, rotors are preferred for the DNP experiments since they transmit microwaves with ˜30% less attenuation. […]
The ^1H polarization is initially saturated by a series of 90° pulses followed by a delay of 3 T2. […] Note that the error for the enhancement factor is determined primarily by the uncertainty in measuring the intensity of the un-enhanced NMR signal.

[2] = Solubility in aqueous media; type: physicochemical
Excerpt: (§1) In contrast, BT2E is insoluble in all of these media.

[3] = Stability in glycerol/water; type: physicochemical; details: glycerol/water (6:4 w/w) at −10 °C for months
Excerpt: as §1

solubility in 200 mM salt ([2]; 200 mM salt, solvent conditions common for protein samples): soluble in 200 mM salt
solubility in water ([2]; water): soluble in water
stability in glycerol/water [3]: stable
Substance: 1-(2,2,6,6-tetramethyl-1-oxy-4-piperidinyl)oxy-3-(2,2,6,6-tetramethyl-1-oxy-4-piperidinyl)amino-propan-2-ol [TOTAPOL]
time constant for growth of the enhanced signal (microwaves on) [1]: ~5.5 s
